Data taken from PubChem BioAssay AID1963841 (Molecular Pharmacology Branch, DTP, NCI, 2024).
pIC50: −log10 of the molar value. “And” between values parts separate entries of the source, which are not always exact repeats. Equal entries are not always repeated.

System: 439559-082-T-J2-PDC spheroid viability
Test: Anticancer human tumor 439559-082-T-J2-PDC patient-derived colon adenocarcinoma cell line growth inhibition [POLQ]
Details: spheroids with HUVEC and MSC; for viability, T/C: stronger effect = lower value
Procedure: Multicellular complex tumor spheroid response to Polymerase (POL) inhibitors (novobiocin, ART-558, RP6685) in combination with a variety of drugs and investigational agents in selected tumor cell lines
The POL inhibitors (novobiocin, ART-558, and RP6685) were evaluated both individually and in combination with standard of care and investigational anticancer small molecules within a complex spheroid model of solid tumors. . Complex spheroids include a stromal component modeled by human endothelial cells (HUVEC) and fibroblasts modeled by human mesenchymal stem cells (MSCs). The concentration ranges selected for each drug and investigational agent were based upon clinically achievable concentrations if the clinical Cmax of the agent was known.
Compounds. The drugs and investigational agents: novobiocin (NSC847541), ART-558 (NSC835418), RP-6685 (NSC848927), peposertib (NSC802822), ceralasertib (NSC780249), elimusertib (NSC800525), camonsertib (NSC841442), AZD-1390 (NSC803789), olaparib (NSC753686), talazoparib (NSC767125), rucaparib (NSC756644), sotorasib (NSC818433), MRTX-1133 (NSC836407), SN-38 (NSC673596), topotecan (NSC609699), epotoside (NSC141540), doxorubicin (NSC123127), gemcitabine (NSC613327), 5-fluorouracil (NSC19893), paclitaxel (NSC125973), vemurafenib (NSC761431), MSA-2 (NSC828583), SN-011 (NSC837082), adavosertib (NSC754352), prexasertib (NSC758257), carboplatin (NSC241240) and oxaliplatin (NSC266046), were obtained from the National Cancer Institute (NCI) Developmental Therapeutics Program Chemical Repository (21). The FDA-approved anticancer drug set is available from the Developmental Therapeutics Program at https://dtp.cancer.gov/organization/dscb/obtaining/. […] The stock solutions were prepared in dimethyl sulfoxide (DMSO, Sigma-Aldrich, St. Louis, MO, cat. D2650), except for the platinum compounds which were prepared in saline (Quality Biological, Gaithersburg, MD, cat. 114-055-101), at 800-fold the tested concentration and stored at -70 degrees C prior to their use. All drugs and investigational agents were tested over a range starting from a high concentration at or near the clinical Cmax and decreasing in half-log increments. If the clinical Cmax for an agent had not been determined, the highest concentration tested was 10 microM, except for SN-38, which was tested at a high concentration of 1 microM.
Cell Culture. All cells were maintained in an incubator at 37 degrees C and 5% CO2 with 95% humidity. The PDC lines were cultured according to standard operating procedures established by the NCI PDMR (https://pdmr.cancer.gov). Table 3 of the manuscript, lists the cell lines along with the number of the three cell types plated to form the mct-spheroids and media for tumor cell growth. After thawing, all PDC lines, except 997537-175-T-J1-PDC and 415267-285-R-J2-PDC, were cultured in Matrigel-coated flasks prepared with a working solution of 1X Ham's F-12 nutrient mix, without supplementation (Thermo Fisher Scientific, cat. 11765054), 100 U/mL penicillin-streptomycin (Thermo Fisher Scientific, cat. 15140122), and 2.5% Matrigel (Corning Inc., Corning, NY, cat. 354248) for the first three passages. The two PDC lines 997537-175-T-J1-PDC and 415267-285-R-J2-PDC were cultured on uncoated flasks. The 857933-349-R-J2-PDC line was cultured in 6C/Colon 1B media containing advanced DMEM/F-12 (Thermo Fisher Scientific, cat. 12634028), 10 mM HEPES (Thermo Fisher Scientific, cat. 15630080), 1X GlutaMAX supplement (Thermo Fisher Scientific, cat. 35050061), 0.1 mg/mL primocin (InvivoGen, San Diego, CA, cat. ant-pm-2), 10% defined fetal bovine serum, heat inactivated (HyClone Laboratories Inc., Logan, UT, cat. SH30070.03HI), 50% L-WRN conditioned media (ATCC, cat. CRL-3276), 1.25 mM N-Acetyl-L-cysteine (Sigma-Aldrich, cat. A9165), 10 mM nicotinamide (Sigma-Aldrich, cat. N0636), 1X B-27 supplement (Thermo Fisher Scientific, cat. 17504044), 1X N-2 supplement (Thermo Fisher Scientific, cat. […]
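Also: spheroids exposed to compounds for seven days before readout.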
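For viability, T/C in this document: 100% = DMSO vehicle control viability.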

COc1ccc([C@@H](O)c2cc(-c3ncnc4cc(N5CCOCC5)ccc34)c(F)cc2Cl)nn1 + Nc1ccc(C#CCN(C(=O)Cc2ncc(C(F)(F)F)cc2C(F)(F)F)c2ccc(F)cc2)nn1
pIC50 (curve of first compound, second compound 0.0316 µM): < 5.00
pIC50 (curve of first compound, second compound 0.1 µM): < 5.00
pIC50 (curve of first compound, second compound 0.316 µM): < 5.00
pIC50 (curve of first compound, second compound 1 µM): < 5.00
pIC50 (curve of first compound, second compound 3.16 µM): < 5.00
pIC50 (curve of first compound, second compound 10 µM): < 5.00
viability, T/C (second compound 0.0316 µM, first compound 0.0316 µM): 105%
viability, T/C (second compound 0.0316 µM, first compound 0.1 µM): 86%
viability, T/C (second compound 0.0316 µM, first compound 0.316 µM): 89.1%
viability, T/C (second compound 0.0316 µM, first compound 1 µM): 89.4%
viability, T/C (second compound 0.0316 µM, first compound 3.16 µM): 84%
viability, T/C (second compound 0.0316 µM, first compound 10 µM): 87.5%
viability, T/C (second compound 0.1 µM, first compound 0.0316 µM): 102%
viability, T/C (second compound 0.1 µM, first compound 0.1 µM): 93.2%
viability, T/C (second compound 0.1 µM, first compound 0.316 µM): 92.7%
viability, T/C (second compound 0.1 µM, first compound 1 µM): 88.1%
viability, T/C (second compound 0.1 µM, first compound 3.16 µM): 78%
viability, T/C (second compound 0.1 µM, first compound 10 µM): 87.3%
viability, T/C (second compound 0.316 µM, first compound 0.0316 µM): 119%
viability, T/C (second compound 0.316 µM, first compound 0.1 µM): 105%
viability, T/C (second compound 0.316 µM, first compound 0.316 µM): 104%
viability, T/C (second compound 0.316 µM, first compound 1 µM): 79.5%
viability, T/C (second compound 0.316 µM, first compound 3.16 µM): 88.9%
viability, T/C (second compound 0.316 µM, first compound 10 µM): 81%
viability, T/C (second compound 1 µM, first compound 0.0316 µM): 95%
viability, T/C (second compound 1 µM, first compound 0.1 µM): 106%
viability, T/C (second compound 1 µM, first compound 0.316 µM): 85.2%
viability, T/C (second compound 1 µM, first compound 1 µM): 83.7%
viability, T/C (second compound 1 µM, first compound 3.16 µM): 86.1%
viability, T/C (second compound 1 µM, first compound 10 µM): 86.3%
viability, T/C (second compound 3.16 µM, first compound 0.0316 µM): 90.1%
viability, T/C (second compound 3.16 µM, first compound 0.1 µM): 107%
viability, T/C (second compound 3.16 µM, first compound 0.316 µM): 90.7%
viability, T/C (second compound 3.16 µM, first compound 1 µM): 80.2%
viability, T/C (second compound 3.16 µM, first compound 3.16 µM): 83.7%
viability, T/C (second compound 3.16 µM, first compound 10 µM): 87.8%
viability, T/C (second compound 10 µM, first compound 0.0316 µM): 94.1%
viability, T/C (second compound 10 µM, first compound 0.1 µM): 90%
viability, T/C (second compound 10 µM, first compound 0.316 µM): 90.1%
viability, T/C (second compound 10 µM, first compound 1 µM): 99.7%
viability, T/C (second compound 10 µM, first compound 3.16 µM): 81.8%
viability, T/C (second compound 10 µM, first compound 10 µM): 77.4%

CC1COCCN1c1cc(-c2ccnn2C)c2ccnc(-c3ccn[nH]3)c2n1 (stereo unspecified)
viability, T/C (compound 0.0316 µM): 97.4% and 94.7% and 96.7%
viability, T/C (compound 0.1 µM): 69.8% and 71.2% and 83.1%
viability, T/C (compound 0.316 µM): 51.1% and 45.3% and 54.1%
viability, T/C (compound 1 µM): 46.9% and 43.4% and 49.2%
viability, T/C (compound 10 µM): 43.8% and 39.4% and 49.2%

CC[C@@]1(O)C(=O)OCc2c1cc1n(c2=O)Cc2cc3c(CN(C)C)c(O)ccc3nc2-1
viability, T/C (compound 0.000316 µM): 102% and 87.1% and 100%
viability, T/C (compound 0.001 µM): 101% and 94.2% and 99%
viability, T/C (compound 0.00316 µM): 100% and 111% and 96.2%
viability, T/C (compound 0.01 µM): 92.8% and 100% and 106%
viability, T/C (compound 0.0316 µM): 95.1% and 96.1% and 93.2%
viability, T/C (compound 0.1 µM): 88.2% and 77.2% and 75.9%
pIC50 (curve of compound): < 7.00

CC1COCCN1c1cc(C2(S(C)(=N)=O)CC2)nc(-c2ccnc3[nH]ccc23)n1 (stereo unspecified)
viability, T/C (compound 0.0316 µM): 100% and 99.8% and 96.6%
viability, T/C (compound 0.1 µM): 98.7% and 94.7% and 99.4%
viability, T/C (compound 0.316 µM): 95.2% and 91.3% and 98.8%
viability, T/C (compound 1 µM): 96% and 88% and 91.1%
viability, T/C (compound 3.16 µM): 94.9% and 97.8% and 85.5%
viability, T/C (compound 10 µM): 67.7% and 75.1% and 68.6%
pIC50 (curve of compound): < 5.00
